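Five compound concentrations were applied to cells in 96-well plates for 48 hours; endpoints were derived by simple linear interpolation of the resulting dose-response curve. GI50: concentration for 50% inhibition of growth. TGI: concentration producing complete growth inhibition.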
Assays:
Assay in all cases: NCI anticancer screen, dose series, 48 h
[1] = test system: MALME-3M melanoma
[2] = test system: EKVX NSCLC
[3] = test system: SNB-19 CNS
[4] = test system: SK-OV-3 ovarian
[5] = test system: SW-620 colon
[6] = test system: BT-549 breast
[7] = test system: UACC-257 melanoma
[8] = test system: HT29 colon
[9] = test system: SF-539 CNS
[10] = test system: HCT-116 colon
[11] = test system: NCI-H460 lung
[12] = test system: NCI-H522 lung
[13] = test system: HS 578T breast
[14] = test system: KM12 colon
[15] = test system: SK-MEL-2 melanoma
[16] = test system: SR leukemia
[17] = test system: M14 melanoma
[18] = test system: UACC-62 melanoma
[19] = test system: UO-31 renal
[20] = test system: SF-268 CNS
[21] = test system: CAKI-1 renal
[22] = test system: TK-10 renal
[23] = test system: OVCAR-4 ovarian
[24] = test system: DU-145 prostate
[25] = test system: NCI-H23 lung
[26] = test system: NCI/ADR-RES ovarian
[27] = test system: HOP-92 NSCLC
[28] = test system: SF-295 CNS
[29] = test system: 786-0 renal
[30] = test system: A498 renal
[31] = test system: HOP-62 NSCLC
[32] = test system: U251 CNS
[33] = test system: SK-MEL-5 melanoma
[34] = test system: MCF7 breast
[35] = test system: LOX IMVI melanoma
[36] = test system: OVCAR-3 ovarian
[37] = test system: HCT-15 colon
[38] = test system: NCI-H226 lung
[39] = test system: A549 NSCLC
[40] = test system: ACHN renal
[41] = test system: SN12C renal
[42] = test system: MDA-MB-231 breast
[43] = test system: HL-60(TB) leukemia
[44] = test system: RPMI-8226 leukemia
[45] = test system: OVCAR-8 ovarian
[46] = test system: MDA-MB-435
[47] = test system: COLO 205 colon
[48] = test system: OVCAR-5 ovarian
[49] = test system: CCRF-CEM leukemia
[50] = test system: SK-MEL-28 melanoma
[51] = test system: T-47D breast
[52] = test system: IGROV1 ovarian
[53] = test system: RXF 393 renal
[54] = test system: HCC-2998 colon
[55] = test system: MOLT-4 leukemia
[56] = test system: K-562 leukemia
[57] = test system: PC-3 prostate

`Nc1nc(N)c2cc(CNc3ccc(C(=O)NC(CC(=O)O)C(=O)O)cc3)ccc2n1` (configuration not stated) showed a TGI [1] greater than 100 µM, a TGI [2] greater than 100 µM and a GI50 [3] of 2.16 µM. For the same compound, the TGI [3] was greater than 100 µM, the GI50 [4] was 1.3 µM and the TGI [4] was greater than 100 µM. For the same compound, the GI50 [5] was 0.0432 µM, the TGI [5] was greater than 100 µM and the GI50 [6] was 0.429 µM. For the same compound, the TGI [6] was greater than 100 µM, the GI50 [7] was greater than 100 µM and the TGI [7] was greater than 100 µM. For the same compound, the GI50 [8] was 0.0594 µM, the TGI [8] was greater than 100 µM and the GI50 [9] was 0.162 µM. The TGI [9] was greater than 100 µM, the GI50 [10] was 0.026 µM and the TGI [10] was greater than 100 µM. The GI50 [11] was 0.0492 µM, the TGI [11] was greater than 100 µM and the TGI [12] was greater than 100 µM. For the same compound, the GI50 [13] was greater than 55.4 µM, the TGI [13] was greater than 100 µM and the GI50 [14] was 0.0817 µM. For the same compound, the TGI [14] was greater than 100 µM, the TGI [15] was greater than 100 µM and the TGI [16] was greater than 100 µM. For the same compound, the GI50 [17] was 0.119 µM, the TGI [17] was greater than 87.7 µM and the GI50 [18] was 0.218 µM. For the same compound, the TGI [18] was greater than 100 µM, the GI50 [19] was 0.358 µM and the TGI [19] was greater than 100 µM. It also gave a GI50 [20] of 0.174 µM, a TGI [20] greater than 100 µM and a GI50 [21] of 0.108 µM. For the same compound, the TGI [21] was greater than 100 µM, the TGI [22] was greater than 100 µM and the GI50 [23] was greater than 100 µM. It also gave a TGI [23] greater than 100 µM, a GI50 [24] of 0.17 µM and a TGI [24] greater than 100 µM. It also gave a GI50 [25] of 0.311 µM, a TGI [25] greater than 100 µM and a GI50 [26] of 0.126 µM. The TGI [26] was greater than 100 µM, the GI50 [27] was greater than 41 µM and the TGI [27] was greater than 100 µM. For the same compound, the GI50 [28] was 0.0611 µM, the GI50 [29] was 0.103 µM and the TGI [29] was greater than 100 µM. The TGI [30] was greater than 100 µM, the GI50 [31] was 0.196 µM and the TGI [31] was greater than 100 µM. For the same compound, the GI50 [32] was 0.2 µM, the TGI [32] was greater than 100 µM and the GI50 [33] was 0.34 µM. It also gave a TGI [33] greater than 100 µM, a GI50 [34] of 0.0621 µM and a TGI [34] greater than 100 µM. It also gave a GI50 [35] of 0.0434 µM, a TGI [35] greater than 100 µM and a GI50 [36] of 3.83 µM. It also gave a TGI [36] greater than 100 µM, a GI50 [37] of 0.049 µM and a TGI [37] greater than 100 µM. The TGI [38] was greater than 100 µM, the GI50 [39] was 0.0578 µM and the TGI [39] was greater than 100 µM. The GI50 [40] was 0.18 µM, the TGI [40] was greater than 100 µM and the GI50 [41] was 0.211 µM. It also gave a TGI [41] greater than 100 µM, a GI50 [42] greater than 83.7 µM and a TGI [42] greater than 100 µM. It also gave a GI50 [43] of 0.0325 µM, a TGI [43] greater than 100 µM and a GI50 [44] of 0.694 µM. The TGI [44] was greater than 100 µM, the GI50 [45] was 0.104 µM and the TGI [45] was greater than 100 µM. For the same compound, the GI50 [46] was 0.0589 µM, the TGI [46] was greater than 100 µM and the GI50 [47] was 3.4 µM. For the same compound, the TGI [47] was greater than 100 µM, the TGI [48] was greater than 100 µM and the GI50 [49] was 0.0839 µM. It also gave a TGI [49] greater than 100 µM, a TGI [50] greater than 100 µM and a GI50 [51] greater than 100 µM. It also gave a TGI [51] greater than 100 µM, a GI50 [52] of 0.187 µM and a TGI [52] greater than 100 µM. For the same compound, the GI50 [53] was greater than 100 µM, the TGI [53] was greater than 100 µM and the GI50 [54] was 0.281 µM. It also gave a TGI [54] greater than 82 µM, a GI50 [55] of 0.825 µM and a TGI [55] greater than 100 µM. For the same compound, the GI50 [56] was 0.0359 µM, the TGI [56] was greater than 100 µM and the TGI [57] was greater than 100 µM.
